Data on 14 compounds can be found in PubChem BioAssay (NCI).

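Tested at 5 concentrations; 48 h exposure; 96-well plates; endpoints linearly interpolated, else capped at highest concentration. GI50: concentration for 50% inhibition of growth. TGI: concentration producing complete growth inhibition.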 Where a SMILES comes first, the peptide text is derived from it. [ ]: non-standard residue; d: D form. The star is where a group is joined. Bn2Val = CC(C)[C@@H](C(=O)*)N(Cc1ccccc1)Cc1ccccc1; NH(4-Cl-benzyl) = Clc1ccc(CN*)cc1; NMeV = CN[C@H](C(=O)O)C(C)C; dNMeA = CN[C@H](C)C(=O)O Bounds are passed on as bounds.

Among the test systems are IGROV1 ovarian; MDA-MB-231 breast; NCI-H23 lung; PC-3 prostate; RPMI-8226 leukemia; RXF 393 renal; SNB-19 CNS; SNB-75 CNS; UACC-62 melanoma.
Assay in all cases: NCI anticancer screen, dose series, 48 h

As for `CN(C)/N=N/c1nc2c(c(=O)n(C)c(=O)n2C)n1CC(O)CO` (centres undefined), the TGI in the experiment on IGROV1 ovarian, in the experiment on MDA-MB-231 breast, with NCI-H23 lung, with PC-3 prostate, in the experiment with RPMI-8226 leukemia and in the experiment with RXF 393 renal was over 100 µM in each case. Moreover, the TGI with SNB-19 CNS, in the experiment on SNB-75 CNS and in the experiment with UACC-62 melanoma was over 100 µM in each case.

As to `O=C(c1cccs1)N1CCN(C(=O)c2cccs2)C1=S`, the TGI with IGROV1 ovarian is 19.6 µM; in the experiment with MDA-MB-231 breast, 18.1 µM; in the experiment with NCI-H23 lung, 32.1 µM; in the experiment on PC-3 prostate it was 15.6 µM; in the experiment on RPMI-8226 leukemia, over 19.7 µM; in the experiment on RXF 393 renal it was 10.5 µM. Besides, the TGI in the experiment with SNB-19 CNS was 32.7 µM; with SNB-75 CNS, 11.7 µM; in the experiment on UACC-62 melanoma it was 16.6 µM.

Regarding `CC(C)[C@H](NC(=O)[C@H](C(C)C)N(Cc1ccccc1)Cc1ccccc1)C(=O)N(C)[C@H](C(=O)N1CCC[C@H]1C(=O)N(C)[C@H](C)C(=O)NCc1ccc(Cl)cc1)C(C)C` (Bn2Val-V[NMeV]P[dNMeA]-{NH(4-Cl-benzyl)}), the TGI in the experiment with IGROV1 ovarian was 8.3 µM; in the experiment on MDA-MB-231 breast it was 11.8 µM; in the experiment with NCI-H23 lung, 28.6 µM; in the experiment on PC-3 prostate, over 100 µM; in the experiment with RPMI-8226 leukemia it was over 100 µM; in the experiment with RXF 393 renal, 6.27 µM. Further, the TGI was over 100 µM with SNB-19 CNS, 29.6 µM in the experiment on SNB-75 CNS and 13.8 µM with UACC-62 melanoma.

Turning to `Cc1cc(C)c2c(c1)C(=O)/C(=C/c1ccccc1C(=O)O)C2`, the TGI in the experiment with IGROV1 ovarian, in the experiment with MDA-MB-231 breast, in the experiment with PC-3 prostate, in the experiment on RPMI-8226 leukemia, in the experiment on RXF 393 renal and with SNB-19 CNS was over 100 µM in each case. Further, the TGI in the experiment with SNB-75 CNS and with UACC-62 melanoma was over 100 µM each time.

`COc1cc(C2c3cc4c(cc3C3OC[C@@H]2C3CO)OCO4)cc(OC)c1OC` (some centres undefined): the TGI with IGROV1 ovarian, in the experiment with MDA-MB-231 breast, with PC-3 prostate, with RPMI-8226 leukemia, with RXF 393 renal and with SNB-19 CNS was over 100 µM each time. For the same compound, the TGI with SNB-75 CNS is over 100 µM.

On to `CC(C)(C)CC(C)(C)c1cc(O)c(O)c(CN2CCCCC2)c1`, for which the TGI with IGROV1 ovarian turned out to be 34.6 µM; in the experiment on MDA-MB-231 breast, 32.6 µM; in the experiment on NCI-H23 lung, 29.6 µM; with PC-3 prostate it was 26.9 µM; with RPMI-8226 leukemia it was 30.6 µM; in the experiment with RXF 393 renal, 29.2 µM. For the same compound, the TGI with SNB-19 CNS was determined as 28.8 µM; with SNB-75 CNS it was 37.3 µM; in the experiment on UACC-62 melanoma, 29.8 µM.

For the compound `N#Cc1cc2c(n(C3OC(CO)C(O)C(O)C3O)c1=S)CCCCCC2` (centres undefined), the TGI in the experiment on IGROV1 ovarian, in the experiment on MDA-MB-231 breast, in the experiment with NCI-H23 lung, in the experiment with PC-3 prostate, in the experiment on RPMI-8226 leukemia and in the experiment with RXF 393 renal was over 100 µM throughout. For the same compound, the TGI with SNB-19 CNS, in the experiment with SNB-75 CNS and with UACC-62 melanoma was over 100 µM in each case.

In the case of `CCc1cc2c(c3c1CCCC3=O)CC1(Cc3ccc(C(=O)OC)cc3C1)C2` (centres undefined), the TGI with IGROV1 ovarian is over 100 µM; in the experiment with MDA-MB-231 breast, over 100 µM; in the experiment with NCI-H23 lung, over 100 µM; with PC-3 prostate it was over 100 µM; in the experiment on RPMI-8226 leukemia it was 91 µM; with RXF 393 renal, over 100 µM. Besides, the TGI in the experiment on SNB-19 CNS and with SNB-75 CNS was over 100 µM throughout.

With `Cc1ccc(S(=O)(=O)Nn2c(O)c(C#N)c(-c3ccc(Cl)cc3)c(C#N)c2=O)cc1`, the TGI in the experiment with IGROV1 ovarian, with MDA-MB-231 breast, in the experiment with PC-3 prostate, in the experiment with RPMI-8226 leukemia, with RXF 393 renal and with SNB-19 CNS was over 100 µM throughout. Moreover, the TGI in the experiment on SNB-75 CNS and in the experiment on UACC-62 melanoma was over 100 µM in each case.

For `COc1cccc(N=N/C(=N\NC(=O)c2ccc(C)cc2)c2ccc(N(CCC#N)CCC#N)cc2C)c1`, the TGI with IGROV1 ovarian, in the experiment on MDA-MB-231 breast, in the experiment on NCI-H23 lung, in the experiment with PC-3 prostate, in the experiment with RPMI-8226 leukemia and with RXF 393 renal was over 100 µM each time. Also, the TGI in the experiment on SNB-19 CNS and in the experiment with SNB-75 CNS was over 100 µM throughout.

In the case of `CN1C(=O)C(O)C[C@@H]1c1ccccc1` (some centres undefined), the TGI in the experiment on IGROV1 ovarian, in the experiment on MDA-MB-231 breast, with NCI-H23 lung, with PC-3 prostate, in the experiment with RPMI-8226 leukemia and in the experiment with RXF 393 renal was over 100 µM in each case. Moreover, the TGI in the experiment on SNB-19 CNS, in the experiment with SNB-75 CNS and with UACC-62 melanoma was over 100 µM in each case.

For `CC(=O)Nc1ccc(OC/C(N)=N/NC(=O)c2ccncc2)cc1`, the TGI with IGROV1 ovarian, with MDA-MB-231 breast, in the experiment with NCI-H23 lung, with PC-3 prostate, with RPMI-8226 leukemia and with RXF 393 renal was over 100 µM each time. Moreover, the TGI with SNB-19 CNS, in the experiment on SNB-75 CNS and with UACC-62 melanoma was over 100 µM each time.

With `Cc1nnc2n1N=C(c1ccc(Cl)cc1Cl)/C(=C/c1ccc(-c3ccc([N+](=O)[O-])cc3Cl)o1)S2`, the GI50 in the experiment with IGROV1 ovarian was 27.5 µM; in the experiment on MDA-MB-231 breast it was 12.2 µM; in the experiment on NCI-H23 lung, 12.5 µM; in the experiment on PC-3 prostate it was 31.3 µM; with RPMI-8226 leukemia, 10.2 µM; in the experiment on RXF 393 renal, 11.5 µM. Also, the results for the GI50 with SNB-19 CNS, in the experiment on SNB-75 CNS and in the experiment on UACC-62 melanoma were over 100 µM, 73.2 µM and 18.4 µM, respectively. Further, the TGI in the experiment on IGROV1 ovarian is over 100 µM; in the experiment with MDA-MB-231 breast, 30.6 µM; in the experiment with NCI-H23 lung, 28.1 µM; in the experiment with PC-3 prostate, over 100 µM; with RPMI-8226 leukemia, 24.9 µM; with RXF 393 renal, 25.1 µM. The TGI with SNB-19 CNS is over 100 µM; in the experiment with SNB-75 CNS, over 100 µM; in the experiment with UACC-62 melanoma, 39.9 µM.

Take `COc1ccc(C(SC2C(O)C(CO)OC2n2ccc(=O)[nH]c2=O)(c2ccccc2)c2ccc(OC)cc2)cc1` (centres undefined): the TGI in the experiment on IGROV1 ovarian was 40.9 µM; in the experiment with MDA-MB-231 breast, 31 µM; in the experiment on NCI-H23 lung, 39.6 µM; in the experiment with PC-3 prostate it was 33 µM; in the experiment on RPMI-8226 leukemia, over 100 µM; in the experiment with RXF 393 renal, 32.4 µM. Also, the TGI was 41 µM in the experiment on SNB-19 CNS, 48.9 µM with SNB-75 CNS and 33.3 µM in the experiment on UACC-62 melanoma.
